Experimental findings from patent US9493782B2, “Inducible promoter sequences for regulated expression and methods of use” (PIONEER HI-BRED INTERNATIONAL INC, priority 2012, dated 2016) are described below.

One assay concerns IN2-2 transcript. The assay is described as follows: Northern blot of maize anther RNA from CBSU-treated plants, IN2-2 probe. It counts as in vivo. To be noted: CBSU-treated male-fertile and male-sterile plants; not detectable in untreated controls; FIG. 2. Here is the method: (§1) Wild type maize plants were grown to the meiosis stage of microspore development. Plants were watered with 30 mg 2-CBSU and allowed to develop to the quartet and early vacuolate stage of microspore development. PolyA+ anther RNA was isolated from wild type control and CBSU treated plants and stored. A cDNA library was constructed from mRNAs isolated from CBSU-treated plants, arrayed onto nylon filters and stored. A cDNA subtraction library was generated using the Clontech PCR-Select cDNA Subtraction Kit (#K1804-1) following the manufacturer's instructions to enrich for CBSU-specific transcripts. Using this approach anther PolyA+ mRNA from wild-type plants was used to enrich for transcripts found in the anther PolyA+ mRNA from CBSU treated plants. […]
(§2) To determine whether the ZmCAS1 cDNA was 1) induced in maize anthers by CBSU-treatment and 2) reduced or absent in tapetum and microspore-ablated maize anthers from CBSU-treated 5126:DAM plants, a 477 bp ZmCAS1c-1 DNA fragment (SEQ ID NO:1), as well as DNA fragments from ZmMS45, Zm5126, ZmActin, and ZmUbiquitin (Cigan et al. 2001. […] MS45 and 5126 transcripts were easily detected in anther RNAs from male-fertile plants but absent in anther RNAs from male-sterile plants (FIG. 2) further supporting the observation that these RNAs are localized to the maize tapetum (Cigan et al. 2001. Sex. Plant Reprod. 14, 135-142).

In assay [1] the test system is 1.7 kb ZmCAS1 promoter driving GUS reporter. The assay is described as follows: GUS expression in leaf punches of maize plants transformed with PHP16975. The assay is classed as in vivo. To be noted: 3 PHP16975 plants, about 5 leaf stage, 2 days after watering with 30 mg 2-CBSU; FIG. 5. Here is the method: Plants were also regenerated from callus events containing PHP16975 and grown in the greenhouse to approximately the 5 leaf stage. At this stage of development, leaf punches from plants regenerated from the 3 bialophos-resistant events shown in FIG. 5 were collected pre- (C) and post-watering (S) with 30 mg of 2-CBSU to examine GUS expression in leaf in response to application of the safener.

Assay [2] relates to 1.7 kb ZmCAS1 promoter driving MS45. In words: Western analysis of MS45 protein in ms45/ms45 maize plants transformed with PHP16973. It counts as in vivo. Particulars: PHP16973 plants watered with 30 mg CBSU at meiosis stage, collected 2 days later.
Assay [3] has as its system truncated 1.0 kb ZmCAS1 promoter driving GUS reporter. The assay is described as follows: GUS staining (X-Gluc) of maize callus events transformed with PHP16974. It counts as cell-based. To be noted: seven PHP16974 callus events, 100 mg/liter CBSU, room temperature; FIG. 4B.
The test system is the same in assay [4]. In words: GUS staining (X-Gluc) of rice callus events transformed with PHP16974. Particulars: four PHP16974 events, 100 mg/liter CBSU, 24 hours; FIG. 9. The assay is classed as cell-based, Oryza sativa cv. Kitaake. The source says: To determine whether the ZmCAS1 promoter could conditionally regulate expression in response to safener treatment or heat treatment in plant species other than maize, Agrobacterium-mediated transformation was used to generate integrated copies of PHP16974 (ZmCAS1HindIII Pro:GUS) comprising the truncated 1.0 kb ZmCAS1 promoter for studies in rice. Scutellum from 10-14 day old germinating seeds (Oryza sativa cv. Kitaake) was used for rice transformation experiment (Toki. 1997, PI Mol. Biol Reporter 15:16-21). Bialophos-resistant callus events containing PHP16974 were selected and screened for their ability to respond to safener application. Four independent bialophos-resistant events were grown on maintenance media or maintenance media containing 100 mg/liter CBSU for 24 hours, removed and stained with X-Gluc. […] PHP16974 bialophos-resistant events were regenerated into plants. Leaf tissue was collected from these plants and used for DNA hybridization analyses to identify single-copy PHP16974 insertions. These plants were allowed to set selfed seed and were used for subsequent studies to monitor GUS expression under the transcriptional control of the ZmCAS1 promoter. Sixteen seed were selected from 2 single-copy PHP16974 events were sterilized, grown on hormone-free media at 28° C. or 37° C. for 48 hours and allowed to germinate. […]

Assay [5] has as its system 1.0 kb ZmCAS1 promoter driving MS45. In words: Northern analysis of MS45 mRNA in ms45/ms45 maize callus transformed with PHP16972. It counts as cell-based. Particulars: five PHP16972 ms45/ms45 callus events, 100 mg/liter CBSU, room temperature, 18 hours; FIG. 6. An excerpt:
T-DNA vectors PHP16972 (SEQ ID NO:13, ZmCAS1HindIII Pro: MS45/35S:PAT) and PHP16973 (SEQ ID NO: 14, ZmCAS1 BamPro:MS45/35S:PAT) were used to transform maize callus which was generated to contain a segregating population of MS45/ms45 heterozygous and ms45/ms45 homozygous mutant plants. In order to detect MS45 RNA or protein expression under the control of the 1.0 or 1.7 kb ZmCAS promoter in maize anthers, plants containing a naturally occurring mutation in the maize MS45 gene which results in loss of MS45 RNA and protein were used for these studies. Pollen from MS45/ms45 plants were used to fertilize male-sterile ms45/ms45 plants for the purpose of generating embryos which would be ms45/ms45 as described in Cigan et al 2001. […] Five random bialophos-resistant callus events containing integrated copies of PHP16972 were placed onto maintenance media (FIG. 5, (−)) and maintenance media containing 100 mg/liter safener CBSU-2 (FIG. 5 (+)) at room temperature for 18 hours, removed and PolyA+ RNA prepared and used for RNA analysis as described (Cigan et al. 2001. Sex. Plant Reprod. 14, 135-142) using the ZmMS45 and ZmActin probes for hybridization analysis. […] A very low signal was observed when callus was grown in the absence of CBSU. Actin was used as a control probe to show nearly equivalent RNA levels were present in all samples. […]

Assay [6] deals with ZmCAS1 transcript. In words: Northern blot of maize callus, leaf and anther RNA treated with CBSU, ZmCAS1 probe. Particulars: CBSU-treated tissues; FIG. 3.
Assay [7] concerns 1.7 kb ZmCAS1 promoter driving GUS reporter. In words: GUS staining (X-Gluc) of maize callus events transformed with PHP16975. To be noted: room temperature, 18 hours, FIG. 4A. It counts as cell-based. An excerpt: Agrobacterium-mediated transformation of immature embryos was used to generate integrated copies of PHP16974 (SEQ ID NO:11; ZmCAS1HindIII Pro:GUS/35SPAT) comprising the 1.0 kb ZmCAS1 promoter (SEQ ID NO:9), PHP16975 (SEQ ID NO:12, ZmCAS1BamPro:GUS/35SPAT) comprising the 1.7 kb ZmCAS1 promoter (SEQ ID NO:10) and PHP16972 (SEQ ID NO:13, ZmCAS1HindIII Pro:MS45/35SPAT) comprising the 1.0 kb ZmCAS1 promoter or PHP16973 (SEQ ID NO:14, ZmCAS1BamPro:MS45/35SPAT:) comprising the 1.7 kb ZmCAS1 promoter.
To determine whether the 1.7 kb or the 1.0 kb ZmCAS1 promoter from maize could direct induced expression of the GUS reporter, three bialophos-resistant callus events were placed onto maintenance media and maintenance media containing increasing amounts of the safener CBSU-2 for at room temperature for 18 hours, removed and stained with X-Gluc to detect GUS activity.

The subject of assay [8] is ZmCAS1 transcript. The assay is described as follows: Northern blot of maize anther RNA from CBSU-treated plants, ZmCAS1 probe. The assay is classed as in vivo. To be noted: FIG. 2. The protocol:
as §1, §2

On to `NC(=O)NS(=O)(=O)c1ccccc1Cl` [CBSU, N-(aminocarbonyl)-2-chlorobenzenesulfonamide], for which the “IN2-2 hybridization signal in anther mRNA” value with IN2-2 transcript was “strong hybridization signals”. Also, the “GUS expression in leaf punches” value in [1] is listed as “strong GUS expression”. The “MS45 protein in leaf extracts” value in [2] (FIG. 7) was “increased steady-state levels of the MS45 protein”. Also, in [2] (FIG. 8), the “MS45 protein in anther extracts” value is on record as “Increased MS45 protein”. Besides, the “GUS expression in callus” value was “inducible GUS expression” in assay [3], “low levels of GUS expression” in [7] (10 mg/l CBSU) and “strong GUS expression” in assay [7] (100 mg/l CBSU). Moreover, in [4], the “GUS expression in rice callus” value is listed as “strong GUS expression”. For the same compound, the “MS45 mRNA hybridization signal in callus” value in assay [5] is given as “strong induction”. For the same compound, the “ZmCAS1 hybridization in mRNAs from callus, leaf and anther” value in the assay on ZmCAS1 transcript [6] is given as “strong hybridization”. Moreover, the “ZmCAS1 hybridization signal in anther mRNA” value is “strong hybridization signals” in the assay on ZmCAS1 transcript [8] (male-fertile plants watered with 30 mg 2-CBSU (+, F)) and “reduced ZmCAS1 signal” in the assay with ZmCAS1 transcript [8] (male-sterile 5126:DAM plants, CBSU-treated (+, S)).
